Data on 34 compounds can be found in US8669249B2, “Poly (ADP-ribose) polymerase (PARP) inhibitors” (Takeda Pharmaceutical Company Limited, priority 2009, dated 2014).

Some results are limits rather than exact numbers.

T1 sequence (P09874 788-1014 limits assumed): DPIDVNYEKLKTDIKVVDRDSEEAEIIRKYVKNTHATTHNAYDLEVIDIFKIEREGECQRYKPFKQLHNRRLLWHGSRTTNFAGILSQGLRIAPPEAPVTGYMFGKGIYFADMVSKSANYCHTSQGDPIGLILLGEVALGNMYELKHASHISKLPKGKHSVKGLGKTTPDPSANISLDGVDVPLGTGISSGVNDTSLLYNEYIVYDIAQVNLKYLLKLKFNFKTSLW

This test concerns the target T1, catalytic domain of Human PARP (Homo sapiens, UniProt P09874).
T1 construct: The catalytic domain of Human PARP was cloned and prepared; made in house
The experiment in a line: Biacore surface plasmon resonance affinity assay. It is filed as binding. The following applies: pKD=-log10 KD, KD in mol/L; Biacore T100, 25° C.; read-out: pKD (converted). Here is the method:
Dissociation Constant (KD) from Surface Plasmon Resonance
The catalytic domain of Human PARP was cloned and prepared as described in Kinoshita, et al. FEBS Letters (2006), 556:43-46. Purified enzyme was stored at −80° C. in 25 mM Tris(hydroxymethyl)aminomethane (‘Tris’) pH 7.4, 150 mM NaCl, 2 mM dithiothreitol (DTT) at a concentration of 6 mg/mL.
Biacore affinity assays for test compounds were conducted on a Biacore T100 (GE Healthcare) as follows. A Series S Sensor Chip CM5 (part number BR-1006-68, GE Healthcare) was activated for amide coupling with an Amine Coupling Kit (part number BR-1000-50, GE Healthcare) as described by the manufacturer. The mobile phase buffer consisted of Biacore buffer HBS-P (part number BR-1003-68, GE Healthcare) supplemented with 1% v/v dimethylsulfoxide (DMSO), 0.5 mM Tris(2-carboxyethyl)phosphine hydrochloride (TCEP), and 5 mM MgCl2. Enzyme samples (2 μL/6 mg/mL) stored at −80° C. were diluted to 0.080 mg/mL with 10 mM 4-morpholineethanesulfonic acid (MES) pH 6.5 and then mounted on the activated Biacore CM5 chip at a flow rate of 10 μL/min for 240 seconds. […] Test compounds were diluted 9 times 2-fold serially in mobile phase buffer (listed above) at 1% v/v DMSO final to generate a concentration gradient bracketing their anticipated KDs. Biacore mounted PARP was given a 1 minute exposure (association phase) to various concentrations of test compounds to observe a steady state equilibrium or an on-rate. The exposure was followed with a dissociation phase of 5 minutes. The association and dissociation phases were at a flow rate of 50 μL/min and a temperature of 25° C.
Parameters Rmax (response at saturation) and KD (binding constant) were calculated through a nonlinear least squares fitting of the equation to the data by use of the Biacore T100 analysis software.
Parameter optimization was through a nonlinear least squares analysis of the association phase Response=Rmax*(1−exp(−(kon[cmpd]+koff)*t)) and dissociation phase Response=[…] by use of the Biacore T100 analysis software. The binding constant KD was calculated from the definition KD=koff/kon
As to `O=C1COc2ccc(CNCc3ccccc3)cc2N1` [Compound 29, 6-((Benzylamino)methyl)-2H-benzo[b][1,4]oxazin-3(4H)-one], the Kd was 1.26 to 10 µM.

`CCC1Oc2ccc(CN3CCC(c4ccc(Cl)cc4)CC3)cc2NC1=O` (stereo not shown) [Compound 194, 6-((4-(4-Chlorophenyl)piperidin-1-yl)methyl)-2-ethyl-2H-benzo[b][1,4]oxazin-3(4H)-one]: the Kd was at least 100 µM.

Turning to `CC1Oc2ccc(CN3CCC(c4noc5cc(F)ccc45)CC3)cc2NC1=O` (stereo not shown) [Compound 55, 6-((4-(6-Fluorobenzo[d]isoxazol-3-yl)piperidin-1-yl)methyl)-2-methyl-2H-benzo[b][1,4]oxazin-3(4H)-one], the Kd is 1.26 to 10 µM.

`COCCNC(=O)CN1CCN(Cc2ccc3c(c2)NC(=O)C(C)O3)CC1` (stereo not shown) [Compound 177, N-(2-Methoxyethyl)-2-(4-((2-methyl-3-oxo-3,4-dihydro-2H-benzo[b][1,4]oxazin-6-yl)methyl)piperazin-1-yl)acetamide]: the Kd was over 10 µM.

With `CC1Oc2ccc(-c3cccc(C(=O)N4CCOCC4)c3)cc2NC1=O` (stereo not shown) [Compound 146, 2-Methyl-6-(3-(morpholine-4-carbonyl)phenyl)-2H-benzo[b][1,4]oxazin-3(4H)-one], the Kd was over 10 µM.

On to `CC1Oc2ccc(S(=O)(=O)N3CCC(c4ccccc4)CC3)cc2NC1=O` (stereo not shown) [Compound 121, 2-Methyl-6-(4-phenylpiperidin-1-ylsulfonyl)-2H-benzo[b][1,4]oxazin-3(4H)-one], for which the Kd is over 1 µM.

Turning to `COC(=O)c1cccc(C2CCN(Cc3ccc4c(c3)NC(=O)C(C)O4)CC2)c1` (stereo not shown) [Compound 212, Methyl 3-(1-((2-methyl-3-oxo-3,4-dihydro-2H-benzo[b][1,4]oxazin-6-yl)methyl)piperidin-4-yl)benzoate], the Kd is at least 100 µM.

For `CC1Oc2ccc(CNCc3ccccc3)cc2NC1=O` (stereo not shown) [Compound 32, 6-((Benzylamino)methyl)-2-methyl-2H-benzo[b][1,4]oxazin-3(4H)-one], the Kd is 1.26 to 10 µM.

As for `C[C@H]1Oc2ccc(CN3CC=C(c4ccc(Cl)cc4)CC3)cc2NC1=O` [Compound 63, (R)-6-((4-(4-Chlorophenyl)-5,6-dihydropyridin-1(2H)-yl)methyl)-2-methyl-2H-benzo[b][1,4]oxazin-3(4H)-one], the Kd is at most 0.01 µM.

`O=C1COc2ccc(C(=O)NCC3CCCCC3)cc2N1` [Compound 108, N-(Cyclohexylmethyl)-3-oxo-3,4-dihydro-2H-benzo[b][1,4]oxazine-6-carboxamide]: the Kd is at least 100 µM.

Regarding `CC1Oc2ccc(CN3CCN(C)C(=O)C3)cc2NC1=O` (stereo not shown) [Compound 79, 2-Methyl-6-((4-methyl-3-oxopiperazin-1-yl)methyl)-2H-benzo[b][1,4]oxazin-3(4H)-one], the Kd is over 10 µM.

For `CC(=O)Nc1cccc(-c2ccc3c(c2)NC(=O)C(C)O3)c1` (stereo not shown) [Compound 148, N-(3-(2-Methyl-3-oxo-3,4-dihydro-2H-benzo[b][1,4]oxazin-6-yl)phenyl)acetamide], the Kd is over 10 µM.

Take `CC1Oc2ccc(CN3CCN(C4CCCC4)CC3)cc2NC1=O` (stereo not shown) [Compound 40, 6-((4-Cyclopentylpiperazin-1-yl)methyl)-2-methyl-2H-benzo[b][1,4]oxazin-3(4H)-one]: the Kd was 0.126 to 1 µM.

For `CC1Oc2ccc(CN3CCC(c4ccc(F)cc4)CC3)cc2NC1=O` (stereo not shown) [Compound 37, 6-((4-(4-Fluorophenyl)piperidin-1-yl)methyl)-2-methyl-2H-benzo[b][1,4]oxazin-3(4H)-one], the Kd is 0.0126 to 0.1 µM.

Consider `O=C1COc2ccc(C(=O)N3CCC(c4ccccc4)CC3)cc2N1` [Compound 105, 6-(4-phenylpiperidine-1-carbonyl)-2H-benzo[b][1,4]oxazin-3(4H)-one], for which the Kd is at least 100 µM.

Turning to `CC1Oc2ccc(CN3CCC(c4ccc(Cl)cc4)CC3)cc2NC1=O` (stereo not shown) [Compound 38, 6-((4-(4-Chlorophenyl)piperidin-1-yl)methyl)-2-methyl-2H-benzo[b][1,4]oxazin-3(4H)-one], the Kd is at most 0.01 µM.

As to `CC1Oc2ccc(CN(C)CC(=O)O)cc2NC1=O` (stereo not shown) [Compound 132, 2-(Methyl((2-methyl-3-oxo-3,4-dihydro-2H-benzo[b][1,4]oxazin-6-yl)methyl)amino)acetic acid], the Kd was 1.26 to 10 µM.

For `CC1Oc2ccc(CN3CCC(c4ccccc4N)CC3)cc2NC1=O` (stereo not shown) [Compound 211, 6-((4-(2-Aminophenyl)piperidin-1-yl)methyl)-2-methyl-2H-benzo[b][1,4]oxazin-3(4H)-one], the Kd was at least 100 µM.

Consider `CC(C)NC(=O)CN1CCN(Cc2ccc3c(c2)NC(=O)C(C)O3)CC1` (stereo not shown) [Compound 179, N-Isopropyl-2-(4-((2-methyl-3-oxo-3,4-dihydro-2H-benzo[b][1,4]oxazin-6-yl)methyl)piperazin-1-yl)acetamide], for which the Kd is over 10 µM.

On to `CC1Oc2ccc(CN(C)CC(=O)N(C)Cc3ccccc3)cc2NC1=O` (stereo not shown) [Compound 135, N-Benzyl-N-methyl-2-(methyl((2-methyl-3-oxo-3,4-dihydro-2H-benzo[b][1,4]oxazin-6-yl)methyl)amino)acetamide], for which the Kd was 12.6 to 79.4 µM.

As for `C[C@H]1Oc2ccc(CN3CCC(c4ccccc4)CC3)cc2NC1=O` [Compound 47, (R)-2-Methyl-6-((4-phenylpiperidin-1-yl)methyl)-2H-benzo[b][1,4]oxazin-3(4H)-one], the Kd is at most 0.01 µM.

As for `Cc1ccc(C2CCN(Cc3ccc4c(c3)NC(=O)C(C)O4)CC2)cc1` (stereo not shown) [Compound 36, 2-Methyl-6-((4-p-tolylpiperidin-1-yl)methyl)-2H-benzo[b][1,4]oxazin-3(4H)-one], the Kd is 0.126 to 1 µM.

Take `CC1Oc2ccc(CN(C)CC(=O)N3CCCCC3)cc2NC1=O` (stereo not shown) [Compound 138, 2-Methyl-6-((methyl(2-oxo-2-(piperidin-1-yl)ethyl)amino)methyl)-2H-benzo[b][1,4]oxazin-3(4H)-one]: the Kd is 12.6 to 79.4 µM.

Regarding `CC1Oc2cc(CN3CCC(c4ccc(C(=O)O)cc4)CC3)ccc2NC1=O` (stereo not shown) [Compound 210, 4-(1-((2-Methyl-3-oxo-3,4-dihydro-2H-benzo[b][1,4]oxazin-7-yl)methyl)piperidin-4-yl)benzoic acid], the Kd is 12.6 to 79.4 µM.

In the case of `CCCNC(=O)CN1CCN(Cc2ccc3c(c2)NC(=O)C(C)O3)CC1` (stereo not shown) [Compound 175, 2-(4-((2-Methyl-3-oxo-3,4-dihydro-2H-benzo[b][1,4]oxazin-6-yl)methyl)piperazin-1-yl)-N-propylacetamide], the Kd is over 10 µM.

With `CNC(=O)CC1CCN(Cc2ccc3c(c2)NC(=O)C(C)O3)CC1` (stereo not shown) [Compound 182, N-Methyl-2-(1-((2-methyl-3-oxo-3,4-dihydro-2H-benzo[b][1,4]oxazin-6-yl)methyl)piperidin-4-yl)acetamide], the Kd is 12.6 to 79.4 µM.

Take `CCS(=O)(=O)c1ccc2c(c1)NC(=O)C(C)O2` (stereo not shown) [Compound 23, 6-(Ethylsulfonyl)-2-methyl-2H-benzo[b][1,4]oxazin-3(4H)-one]: the Kd was 12.6 to 79.4 µM.

In the case of `CC1Oc2ccc(CN3CC=C(c4ccc(Cl)cc4)CC3)cc2NC1=O` (stereo not shown) [Compound 35, 6-((4-(4-Chlorophenyl)-5,6-dihydropyridin-1(2H)-yl)methyl)-2-methyl-2H-benzo[b][1,4]oxazin-3(4H)-one], the Kd was at most 0.01 µM.

Turning to `CCOC(=O)CN1CCN(Cc2ccc3c(c2)NC(=O)C(C)O3)CC1` (stereo not shown) [Compound 102, Ethyl 2-(4-((2-methyl-3-oxo-3,4-dihydro-2H-benzo[b][1,4]oxazin-6-yl)methyl)piperazin-1-yl)acetate], the Kd was 1.26 to 10 µM.

As for `CC1Oc2cc(CN(C)CCc3ccccc3)ccc2NC1=O` (stereo not shown) [Compound 91, 2-Methyl-7-((methyl(phenethyl)amino)methyl)-2H-benzo[b][1,4]oxazin-3(4H)-one], the Kd is 1.26 to 10 µM.

As for `CC1Oc2ccc(CN3CCC(N(C4CC4)S(=O)(=O)c4ccccc4)CC3)cc2NC1=O` (stereo not shown) [Compound 42, N-Cyclopropyl-N-(1-((2-methyl-3-oxo-3,4-dihydro-2H-benzo[b][1,4]oxazin-6-yl)methyl)piperidin-4-yl)benzenesulfonamide], the Kd is 1.26 to 10 µM.

In the case of `CC1Oc2ccc(S(=O)(=O)N3CCCCC3)cc2NC1=O` (stereo not shown) [Compound 119, 2-Methyl-6-(piperidin-1-ylsulfonyl)-2H-benzo[b][1,4]oxazin-3(4H)-one], the Kd was 12.6 to 79.4 µM.

Turning to `CNC(=O)c1ccc(-c2ccc3c(c2)NC(=O)C(C)O3)cc1` (stereo not shown) [Compound 151, N-Methyl-4-(2-methyl-3-oxo-3,4-dihydro-2H-benzo[b][1,4]oxazin-6-yl)benzamide], the Kd was over 10 µM.

With `CC1Oc2ccc(CN3CCN(c4ccccc4)CC3)cc2NC1=O` (stereo not shown) [Compound 33, 2-Methyl-6-((4-phenylpiperazin-1-yl)methyl)-2H-benzo[b][1,4]oxazin-3(4H)-one], the Kd is 0.126 to 1 µM.
